From US11254987B2, “PD-L1 promoter methylation in cancer” (Genentech, Inc., priority 2015, dated 2022)
Each block holds one compound with its values, some of them ahead of it.

How the values were obtained:
Format in all cases: cell-based, human
[1] = tested on: PD-L1 expression; assay: PD-L1 expression after 5-aza-dC treatment of the CGP NSCLC cell line panel (FIG. 6C, 6D)
Description: (§1) NSCLC cell lines were procured from American Type Cell Culture (ATCC) or academic sources and cultured in RPMI 1640 medium supplemented with 10% fetal bovine serum (FBS) and 2 mM L-glutamine. Cells were detached for splitting and/or experimental analysis following a PBS wash and incubation with Accutase detachment medium (Sigma). Cells were treated with 0.1 mM trichostatin A (“TSA,” Sigma) and/or 1 ng/mL interferon gamma (IFNγ) for 24 hours and 1 mM 5-azacitidine-dC (5-aza-dC, Sigma), for 3 days qd (i.e., once a day) or 6 days q2d (i.e., every other day).
(§2) Buffer RLT Plus (Qiagen) was used to lyse the cells for RNA and DNA extraction from the same lysate using the AllPrep DNA/RNA Mini Kit (Qiagen). RNA expression was analyzed by microarray on the GeneChip Human Genome U133 Plus 2.0 Array (Affymetrix) by Asuragen, Inc, and by qPCR using TaqMan Gene Expression Assays (Life Technologies). Data was analyzed using Genomics Suite (Partek), Spotfire (TIBCO), JMP (SAS), and IPA (Ingenuity). DNA was analyzed on the INFINIUM® HumanMethylation450 BeadChip (Illumina). DNA was bisulfite-modified using the Zymo DNA Gold Methylation kit (Zymo Research) and amplified with bisulfite specific sequencing primers targeting the CD274 promoter region. PCR products were TA-subcloned and sequenced using standard methods (ABI). ABI sequence files were analyzed using BIQ Analyzer software (C. Bock).
NSCLC cell lines from the Cancer Genome Project (CGP) were used to create a scatter plot directly comparing smoothened CpG1 and CpG5 methylation (M-value) on the X axis and PD-L1 expression (RNA-seq, Log 2-count) on the Y axis. […] PD-L1 baseline expression in these cell lines is highly affected by the level of promoter methylation. The CGP cell lines analyzed in FIG. 6A were then categorized into three methylation groups: (1) low (i.e., low to no methylation at both CpG1 and CpG5), (2) intermediate (i.e., CpG1 or CpG5 site methylated), or (3) high (CpG1 and CpG5 both methylated). These groups were plotted on the X axis, with basal PD-L1 expression by RNA-seq plotted on the Y and median expression shown for each group. […] Group (1) (i.e., low) had the highest median PD-L1 expression, with Group (2) (i.e., intermediate) and Group (3) (i.e., high) methylation groups showing lower median PD-L1 expression.
The cell lines in the CPG NSCLC cell line panel were then treated with 5-aza-dC in order to the effect global demethylation would have on PD-L1 expression in a dataset with a larger number of cell lines. […] Additionally, two cell lines in this panel are known to have been raised from two separate samples from one patient, H1993 (low) and H2073 (intermediate).

[2] = tested on: PD-L1 RNA expression; assay: PD-L1 RNA expression by qRT-PCR in treated NSCLC cell lines (FIG. 3, 4A)
Description: as §1, §2
Cells from each of the cell lines were exposed to one of five conditions: (1) no treatment; (2) treatment with 1 mM 5-azacitidine-dC (5-aza-dC, a DNA demethylation agent); (3) treatment with 0.1 mM trichostatin A (TSA, a class I and class II mammalian histone […]); (4) treatment with 1 ng/mL interferon gamma (IFNg); or (5) treatment with a combination of 5-aza-dC, TSA, and IFNg. PD-L1 RNA expression was then measured by qRT-PCR.

[3] = tested on: PD-L1 expression; assay: PD-L1 expression after IFNg and/or STAT1 and STAT3 siRNA knockdown in A427 and H358 (FIG. 4C); conditions: H358 (unmethylated)
Description: (§3) Protein lysates were generated using Cell Extraction Buffer (Life Technologies), supplemented with SigmaFAST Protease Inhibitor Tablets (Sigma) and Phosphatase Inhibitor Cocktail 1 and 2 (Sigma). Lysates centrifuged at 20,000×g for 10 minutes at 4° C., and the supernatants were then removed for analysis by Western Blot (WB). Samples were treated with NuPage Novex LDS and SRA Buffers (Life Technologies) and loaded onto a Bis-Tris Gel (Life Technologies) alongside SeeBlue Plus2 molecular weight standard (Life Technologies). Gels were transferred to nitrocellulose membranes using the iBlot system (Life Technologies) and then blocked with Odyssey Blocking Buffer (LI-COR) for 1 hour at room temperature. Gels were stained with antibodies against human PD-L1 (in-house), β-actin (Sigma); p/t STAT1, p-STAT3-Y705, p-STAT3-5727, and t-STAT3 (all Cell Signaling) diluted in Odyssey Blocking Buffer+0.01% Tween-20. Primary antibodies were detected secondary antibodies from LI-COR in Odyssey Blocking Buffer+0.01% Tween-20+0.001% SDS and analyzed on the Odyssey CLx system (LI-COR).
Next, the relationship between PD-L1 promoter methylation and the IFNg/JAK/STAT pathway was investigated in A427 and H358 using siRNA. […]

[4] = tested on: STAT3; assay: Western blot of IFNg/JAK/STAT signaling pathway: STAT3
Description: as §3
Next, western blots were performed to determine whether the IFNg/JAK/STAT signaling pathway plays a role in the IFNg-mediated induction of PD-L1 transcript and protein levels in A427, H322T, H292, and H358. Briefly, cells from A427, H322T, H292, and H358 were either (a) untreated; (b) treated with IFNg for 30 minutes; or (c) treated with IFNg for 24 hours. The cells were then processed into protein lysates and run out on gels, blotted and probed with the following antibodies: (1) anti-phospho-STAT1; (2) anti-total-STAT1: (3) anti-phospho-STAT3-Y705; (4) anti-phospho-STAT3-S727; (5) anti-total-STAT3; and (6) β-actin (loading control). […] STAT3 was further activated by the mTOR and MAPK pathways at S727.
Next, the relationship between PD-L1 promoter methylation and the IFNg/JAK/STAT pathway was investigated in A427 and H358 using siRNA. […] In order to determine which STAT was most crucial for PD-L1 expression in the context of methylation, cells from each cell line were dosed with (1) no siRNA; (2) Scrambled control; (3) siSTAT1; (4) siSTAT3; (5) IFNg, or (6) siSTAT1, siSTAT3, and IFNg.

[5] = tested on: STAT1; assay: Western blot of IFNg/JAK/STAT signaling pathway: STAT1
Description: as §3
Next, western blots were performed to determine whether the IFNg/JAK/STAT signaling pathway plays a role in the IFNg-mediated induction of PD-L1 transcript and protein levels in A427, H322T, H292, and H358. […]

[6] = tested on: STAT1 near CpG1 in the PD-L1 promoter; assay: ChIP-Seq: binding of STAT1 near CpG1 in the PD-L1 promoter; conditions: H358, methylation at PD-L1 promoter LOW; IFNγ stimulation
Description: (§4) NSCLC cell lines were grown to the proper confluency, and treated cells were fixed with 1% formaldehyde for 15 min and quenched with 0.125 M glycine. Chromatin was isolated by the addition of lysis buffer and disruption with a Dounce homogenizer. Lysates were sonicated, and the DNA was sheared to an average length of 300-500 bp. Genomic DNA (Input) was prepared by treating aliquots of chromatin with RNase, proteinase K, and heat for de-crosslinking. Treatment was followed by ethanol precipitation. Pellets of genomic DNA were resuspended and the resulting DNA was quantified on a NanoDrop spectrophotometer. Extrapolation to the original chromatin volume allowed quantitation of the total chromatin yield.
(§5) An aliquot of chromatin (30 μg) was pre-cleared with protein A agarose beads (Invitrogen). […]
(§6) Illumina sequencing libraries were prepared from the ChIP and Input DNAs by the standard consecutive enzymatic steps of end-polishing, dA-addition, and adaptor ligation. After a final PCR amplification step, the resulting DNA libraries were quantified and sequenced on HiSeq 2500 or NexSeq 500. Sequences (50 nt reads, single end or 75 nt reads, single end) were aligned to the human genome (hg19) using the BWA algorithm. […] Peak locations were determined using the MACS algorithm (v1.4.2.) with a cutoff of pvalue=1×10^−7. […]

[7] = tested on: STAT3 near CpG1 in the PD-L1 promoter; assay: ChIP-Seq: binding of STAT3 near CpG1 in the PD-L1 promoter; conditions: H358, methylation at PD-L1 promoter LOW; IFNγ stimulation
Description: as §4, §5, §6

[8] = tested on: PD-L1 protein expression; assay: Surface PD-L1 protein expression by FACS after IFNg treatment (FIG. 4A)
Description: as §1
For FACS analysis, cells were detached then washed twice in FBS Staining Buffer (BD Biosciences). Cells were then stained with either PE-conjugated anti-human PD-L1 or isotype control (BD Biosciences) and then washed and analyzed on the FACSCanto II Analyzer (BD Biosciences).
PD-L1 protein expression loosely correlated with RNA expression in this subset of cell lines, both at baseline and following IFNg stimulation. […] In the A427 cell line, PD-L1 protein expression remained low. In the H292 and H358 cell lines, PD-L1 protein expression increased 3-4 fold, and in H322T, PD-L1 protein expression increased more than 48-fold as compared to baseline levels. […] As discussed above, baseline levels of PD-L1 protein in H322T were low.

[9] = A427 following stimulation with IFNg (FIG. 4C)

Compound: Nc1ncn([C@H]2C[C@H](O)[C@@H](CO)O2)c(=O)n1 [5-aza-dC, 5-azacitidine-dC]
PD-L1 expression ([1]; CGP NSCLC cell line panel treated with 5-aza-dC): significantly induced
PD-L1 expression ([1]; H1993 (low methylation) following 5-aza-dC treatment): no significant changes
PD-L1 expression ([1]; H2073 (intermediate methylation) following 5-aza-dC treatment): significant PD-L1 expression induction
induction of methylation-suppressed PD-L1 expression ([1]; only Group (3) (high methylation) cell lines, 5-aza-dC): significant induction
PD-L1 RNA expression ([2]; A427 (high methylation), 3 days of 5-aza-dC treatment): increased
PD-L1 RNA expression ([2]; H322T (medium methylation), 3 days of 5-aza-dC treatment): increased
PD-L1 RNA expression ([2]; H661 (high methylation at CpG1 and CpG5), 3 days of 5-aza-dC treatment): increased
PD-L1 RNA expression ([2]; LXFL529 (high methylation), 3 days of 5-aza-dC treatment): increased

Compound: CC(/C=C/C(=O)NO)=C\[C@@H](C)C(=O)c1ccc(N(C)C)cc1 [TSA, trichostatin A]
PD-L1 RNA expression ([2]; H322T only, of H661, LXFL529, A427, H2073, H322T, H1993, 0.1 mM TSA): increase

Binding (chIP STAT1) [6]: bind and YES
Binding (chIP STAT3) [7]: bound and YES
Compound: interferon gamma [IFNg, interferon gamma, used at 1 ng/mL to stimulate cells]
PD-L1 expression [3]: further induced
induction of activated STAT3 [4, 9]: strong induction
p-STAT3-Y705 ([4]; H292, following 30 min IFNg treatment): constitutively activated
p-STAT3-5727 activation ([4]; H358, before and after stimulation, early and late timepoints): did not show p-STAT3-5727 activation
p-STAT3-Y705 ([4]; H358, by 24 hrs following IFNg stimulation): lost
Activation of the JAK/STAT signaling pathway ([4]; all cell lines except H358, by 24 hrs IFNg): observed
induction of activated STAT1 [5, 9]: strong induction
p-STAT1 activation ([5]; all four cell lines (A427, H322T, H292, H358) following IFNg stimulation): robust
PD-L1 protein expression ([8]; A427 following IFNg treatment): remained low
PD-L1 protein expression increase ([8]; H292 following IFNg treatment, vs baseline): 3-4 fold
PD-L1 protein expression increase ([8]; H322T following IFNg treatment, compared to baseline levels): more than 48 fold
PD-L1 protein expression increase ([8]; H358 following IFNg treatment, vs baseline): 3-4 fold
surface PD-L1 protein levels ([8]; all four cell lines (A427, H322T, H292, H358) following IFNg treatment): increased
PD-L1 RNA expression ([2]; A427 (high methylation) after IFNg stimulation): 0.012 2^−DCt
PD-L1 RNA induction ([2]; A427, H322T, H292 and H358 stimulated with IFNg): increases
PD-L1 RNA expression ([2]; H292 (low methylation) after IFNg stimulation): 0.102 2^−DCt
PD-L1 RNA expression ([2]; H322T (medium methylation) after IFNg stimulation, baseline 0.018): 1.356 2^−DCt
PD-L1 RNA expression ([2]; H358 (low methylation, high baseline) after IFNg stimulation): no significant changes
